# Legend:
# [1] = Batch extraction from simulated HLLW from the PUREX process, alpha spectrometry; type: physicochemical; settings: 0.1 mol/L in TPH/1-octanol (90:10)
# Text: (§1) The feed solution used for the extraction tests is a simulated solution of an HLLW from the PUREX process, the composition of which is shown in Table 4. Table 4: Composition of the simulated HLLW-PUREX solution used for the extraction tests
# (§2) The composition of the HLLW corresponds to a burn-up of 33 GWd/tHM, the generated volume of HLLW being 5000 1/t of fuel. The feed was spiked with ^241Am, ^244Cm, ^252Cf and ^152Eu. Oxalic acid and N-(2-hydroxyethyl)ethylenediaminotriacetate (HEDTA) were also added before the extraction tests.
# (§3) 500 µL of the aqueous and organic phases were spiked with 10 µL of a tracer solution containing 241Am, 244Cm, 252Cf and ^152Eu, and were equilibrated for 10 minutes while they were stirred vigorously in a vortex stirrer. After the separation of the phases by centrifugation, 200 µL aliquots of each phase were taken for the determination of the concentration of ^241Am and ^152Eu using a high-purity germanium spectrometer system (EG&G Ortec). The nuclides ^241Am, ^244Cm and ^252Cf were measured by alpha spectrometry with an α-Analyst device of the company Canberra-Packard GmbH, Germany.
# (§4) The concentrations of the stable elements were determined by mass spectrometry with an inductively coupled plasma source (ICP-MS) in a DRC Elan 6100 device of Perkin Elmer Sciex. The aqueous phase was measured directly after the appropriate dilution. The organic phase was analyzed after having mineralized the organic matter by microwave acid digestion and subsequent dilution.
# (§5) The distribution coefficients were calculated for each element according to section C).
# (§6) A 0.1 mol/L solution of compound 4 in the "TPH/1-octanol (90:10)%vol" mixture was prepared. Extraction experiments were carried out with said simulated HLLW in a pure form and also adding oxalic acid and HEDTA to it. These complexing agents have shown to be effective in the DIAMEX process for the complexing of Mo, Zr (H2C2O4) and Pd (HEDTA).
# (§7) Extraction experiments were carried out with said simulated HLLW in a pure form and also adding oxalic acid and HEDTA to it.
# [2] = Batch extraction from simulated HLLW from the PUREX process; type: physicochemical; settings: 0.1 mol/L in TPH/1-octanol (90:10)
# Text: as §1, §2, §3, §4, §5, §6, §7
# [3] = Oxalic acid 0.2 mol/L, HEDTA 0.05 mol/L, TBP 0.5 mol/L
# [4] = Oxalic acid 0.2 mol/L, HEDTA 0.05 mol/L, TBP No
# [5] = Oxalic acid 0.3 mol/L, HEDTA 0.05 mol/L, TBP 0.5 mol/L
# [6] = Oxalic acid 0.3 mol/L, HEDTA 0.05 mol/L, TBP No
# [7] = Oxalic acid No, HEDTA No, TBP 0.5 mol/L
# [8] = Oxalic acid No, HEDTA No, TBP No
substance,measurement,setting,value
2-Dioctylcarbamoylmethoxy-N-[3-[(2-dioctylcarbamoyl-methoxy-acetylamino)methyl]benzyl]acetamide [Compound 4],"Distribution coefficients Am-241, α",[1]; [3],52
same,"Distribution coefficients Am-241, α",[1]; [4],158
same,"Distribution coefficients Am-241, α",[1]; [5],83
same,"Distribution coefficients Am-241, α",[1]; [6],164
same,"Distribution coefficients Am-241, α",[1]; [7],58
same,"Distribution coefficients Am-241, α",[1]; [8],112
same,Distribution coefficients Ag,[2]; [3],0.013
same,Distribution coefficients Ba,[2]; [3],0.0002
same,Distribution coefficients Cd,[2]; [3],0.035
same,Distribution coefficients Ce,[2]; [3],16
same,Distribution coefficients Cf-252,[2]; [3],702
same,Distribution coefficients Cm-244,[2]; [3],83
same,Distribution coefficients Cs,[2]; [3],0.000087
same,Distribution coefficients Eu,[2]; [3],362
same,Distribution coefficients Eu-152,[2]; [3],430
same,Distribution coefficients Gd,[2]; [3],91
same,Distribution coefficients La,[2]; [3],10
same,Distribution coefficients Mo,[2]; [3],0.065
same,Distribution coefficients Nd,[2]; [3],52
same,Distribution coefficients Pd,[2]; [3],0.081
same,Distribution coefficients Pr,[2]; [3],26
same,Distribution coefficients Rb,[2]; [3],0.0082
same,Distribution coefficients Rh,[2]; [3],0.00068
same,Distribution coefficients Ru,[2]; [3],0.29
same,Distribution coefficients Sm,[2]; [3],253
same,Distribution coefficients Y,[2]; [3],1698
same,Distribution coefficients Zr,[2]; [3],0.062
same,Distribution coefficients Ag,[2]; [4],0.013
same,Distribution coefficients Ba,[2]; [4],0.00019
same,Distribution coefficients Cd,[2]; [4],0.034
same,Distribution coefficients Ce,[2]; [4],36
same,Distribution coefficients Cf-252,[2]; [4],2057
same,Distribution coefficients Cm-244,[2]; [4],262
same,Distribution coefficients Cs,[2]; [4],0.000087
same,Distribution coefficients Eu,[2]; [4],764
same,Distribution coefficients Eu-152,[2]; [4],379
same,Distribution coefficients Gd,[2]; [4],239
same,Distribution coefficients La,[2]; [4],21
same,Distribution coefficients Mo,[2]; [4],0.087
same,Distribution coefficients Nd,[2]; [4],142
same,Distribution coefficients Pd,[2]; [4],0.073
same,Distribution coefficients Pr,[2]; [4],59
same,Distribution coefficients Rb,[2]; [4],0.0093
same,Distribution coefficients Rh,[2]; [4],0.00086
same,Distribution coefficients Ru,[2]; [4],0.29
same,Distribution coefficients Sm,[2]; [4],690
same,Distribution coefficients Y,[2]; [4],1766
same,Distribution coefficients Zr,[2]; [4],0.096
same,Distribution coefficients Ag,[2]; [5],0.012
same,Distribution coefficients Ba,[2]; [5],0.0002
same,Distribution coefficients Cd,[2]; [5],0.036
same,Distribution coefficients Ce,[2]; [5],21
same,Distribution coefficients Cf-252,[2]; [5],1403
same,Distribution coefficients Cm-244,[2]; [5],133
same,Distribution coefficients Cs,[2]; [5],0.000087
same,Distribution coefficients Eu,[2]; [5],446
same,Distribution coefficients Eu-152,[2]; [5],348
same,Distribution coefficients Gd,[2]; [5],190
same,Distribution coefficients La,[2]; [5],13.7
same,Distribution coefficients Mo,[2]; [5],0.094
same,Distribution coefficients Nd,[2]; [5],68
same,Distribution coefficients Pd,[2]; [5],0.041
same,Distribution coefficients Pr,[2]; [5],32
same,Distribution coefficients Rb,[2]; [5],0.0081
same,Distribution coefficients Rh,[2]; [5],0.00067
same,Distribution coefficients Ru,[2]; [5],0.24
same,Distribution coefficients Sm,[2]; [5],378
same,Distribution coefficients Y,[2]; [5],1658
same,Distribution coefficients Zr,[2]; [5],0.022
same,Distribution coefficients Ag,[2]; [6],0.013
same,Distribution coefficients Ba,[2]; [6],0.0002
same,Distribution coefficients Cd,[2]; [6],0.037
same,Distribution coefficients Ce,[2]; [6],32
same,Distribution coefficients Cf-252,[2]; [6],1816
same,Distribution coefficients Cm-244,[2]; [6],286
same,Distribution coefficients Cs,[2]; [6],0.000604
same,Distribution coefficients Eu,[2]; [6],513
same,Distribution coefficients Eu-152,[2]; [6],553
same,Distribution coefficients Gd,[2]; [6],258
same,Distribution coefficients La,[2]; [6],18
same,Distribution coefficients Mo,[2]; [6],0.115
same,Distribution coefficients Nd,[2]; [6],120
same,Distribution coefficients Pd,[2]; [6],0.043
same,Distribution coefficients Pr,[2]; [6],53
same,Distribution coefficients Rb,[2]; [6],0.0082
same,Distribution coefficients Rh,[2]; [6],0.00069
same,Distribution coefficients Ru,[2]; [6],0.17
same,Distribution coefficients Sm,[2]; [6],451
same,Distribution coefficients Y,[2]; [6],1708
same,Distribution coefficients Zr,[2]; [6],0.099
same,Distribution coefficients Ag,[2]; [7],39
same,Distribution coefficients Ba,[2]; [7],0.00019
same,Distribution coefficients Cd,[2]; [7],0.033
same,Distribution coefficients Ce,[2]; [7],16
same,Distribution coefficients Cf-252,[2]; [7],692
same,Distribution coefficients Cm-244,[2]; [7],95
same,Distribution coefficients Cs,[2]; [7],0.000082
same,Distribution coefficients Eu,[2]; [7],327
same,Distribution coefficients Eu-152,[2]; [7],294
same,Distribution coefficients Gd,[2]; [7],122
same,Distribution coefficients La,[2]; [7],10
same,Distribution coefficients Mo,[2]; [7],0.066
same,Distribution coefficients Nd,[2]; [7],55
same,Distribution coefficients Pd,[2]; [7],2.6
same,Distribution coefficients Pr,[2]; [7],26
same,Distribution coefficients Rb,[2]; [7],0.0080
same,Distribution coefficients Rh,[2]; [7],0.00069
same,Distribution coefficients Ru,[2]; [7],0.27
same,Distribution coefficients Sm,[2]; [7],233
same,Distribution coefficients Y,[2]; [7],1773
same,Distribution coefficients Zr,[2]; [7],295
same,Distribution coefficients Ag,[2]; [8],37
same,Distribution coefficients Ba,[2]; [8],0.00019
same,Distribution coefficients Cd,[2]; [8],0.034
same,Distribution coefficients Ce,[2]; [8],23
same,Distribution coefficients Cf-252,[2]; [8],2079
same,Distribution coefficients Cm-244,[2]; [8],191
same,Distribution coefficients Cs,[2]; [8],0.000084
same,Distribution coefficients Eu,[2]; [8],685
same,Distribution coefficients Eu-152,[2]; [8],293
same,Distribution coefficients Gd,[2]; [8],166
same,Distribution coefficients La,[2]; [8],13
same,Distribution coefficients Mo,[2]; [8],0.069
same,Distribution coefficients Nd,[2]; [8],94
same,Distribution coefficients Pd,[2]; [8],2.5
same,Distribution coefficients Pr,[2]; [8],39
same,Distribution coefficients Rb,[2]; [8],0.0078
same,Distribution coefficients Rh,[2]; [8],0.00066
same,Distribution coefficients Ru,[2]; [8],0.25
same,Distribution coefficients Sm,[2]; [8],615
same,Distribution coefficients Y,[2]; [8],1753
same,Distribution coefficients Zr,[2]; [8],133

# Source: patent publication EP1923473B1, “Bis-diglycolamides (BISDGA) as new extractants for lanthanides [Ln(III)] and actinides [An(III)] from aqueous high-level wastes” (Universidad Autónoma de Madrid, priority 2006, dated 2008)
